Reference: patent US20160346291A1, “COMPOSITIONS AND THERAPEUTIC METHODS FOR ACCELERATED PLAQUE REGRESSION” (Resverlogix Corp, priority 2013, published 2016)

Each molecule was assayed on ApoA-I mRNA (assay: ApoA-I mRNA quantitation in HepG2 cells (real-time PCR)). Details: concentration less than or equal to 100 uM, fold induction relative to DMSO control.
Format: cell-based
Design: key: Active: An active compound is one that causes a >15% increase in ApoA-I mRNA at a concentration less than or equal to 100 uM
Procedure: At time of harvesting, the spent media was removed from the HepG2 cells and immediately placed on ice (for immediate use) or at −80° C. (for future use) in ApoA-I and albumin ELISAs. The cells remaining in the plate wells were rinsed in 200 μL PBS. PBS was carefully removed to avoid removing any loosely attached cells.
Once the PBS was removed, 85 μL cell lysis solution was added to the cells in each well and incubated for 5-10 min at room temperature, to allow for complete cell lysis and detachment. mRNA was then prepared using the “mRNA Catcher PLUS plate” from Invitrogen, according to the protocol supplied. After the last wash, as much wash buffer as possible was aspirated without allowing the wells to dry. Elution Buffer (E3, 80 μL) was then added to each well. mRNA was then eluted by incubating the mRNA Catcher PLUS plate with Elution Buffer for 5 min at 68° C. and then immediately placing the plate on ice.
The eluted mRNA was isolated and then used in a one-step real-time […]-PCR reaction, using components of the Ultra Sense Kit together with Applied Biosystems primer-probe mixes. Real-time PCR data was analyzed, using the Ct values, to determine the fold induction of each unknown sample, relative to the control (that is, relative to the control for each independent DMSO concentration).
The following compounds of Formula I were evaluated in this assay. An active compound is one that causes a >15% increase in ApoA-I mRNA at a concentration less than or equal to 100 uM.

Structure (SMILES) | Effect on ApoA-I mRNA levels
COc1cc(OC)c2c(=O)[nH]c(-c3ccc(OC)c(CN4CCOCC4)c3)nc2c1 [5,7-dimethoxy-2-(4-methoxy-3-(morpholinomethyl)phenyl)quinazolin-4(3H)-one] | Active
COc1cc(OC)c2c(=O)[nH]c(-c3ccc(C)cc3)nc2c1 [5,7-dimethoxy-2-p-tolylquinazolin-4(3H)-one] | Inactive
COc1cccc2nc(-c3cc(C)c(OCCO)c(C)c3)[nH]c(=O)c12 [2-(4-(2-hydroxyethoxy)-3,5-dimethylphenyl)-5-methoxyquinazolin-4(3H)-one] | Active
CCOc1nc(-c2cc(C)c(O)c(C)c2)nc2cc(OC)cc(OC)c12 [4-(4-ethoxy-5,7-dimethoxyquinazolin-2-yl)-2,6-dimethylphenol] | Inactive
COc1cc(OC)c2c(=O)[nH]c(-c3ccc(OCCO)c(OC)c3)nc2c1 [2-(4-(2-hydroxyethoxy)-3-methoxyphenyl)-5,7-dimethoxyquinazolin-4(3H)-one] | Active
COc1cc(OC)c2c(=O)[nH]c(-c3ccccc3C)nc2c1 [5,7-dimethoxy-2-o-tolylquinazolin-4(3H)-one] | Active
COc1cc(OC)c2c(=O)[nH]c(-c3cc(C)c(OCCOC(=O)NC4CCCCC4)c(C)c3)nc2c1 [2-(4-(5,7-dimethoxy-4-oxo-3,4-dihydroquinazolin-2-yl)-2,6-dimethylphenoxy)ethyl cyclohexylcarbamate] | Active
Cc1cc(-c2cc3ccc(CN4CCOCC4)cc3c(=O)[nH]2)cc(C)c1O [3-(4-hydroxy-3,5-dimethylphenyl)-7-(morpholinomethyl)isoquinolin-1(2H)-one] | Active
COc1cc(OC)c2c(=O)[nH]c(-c3cc(C)c(OCCNS(=O)(=O)c4ccc(Cl)cc4)c(C)c3)nc2c1 [4-chloro-N-(2-(4-(5,7-dimethoxy-4-oxo-3,4-dihydroquinazolin-2-yl)-2,6-dimethylphenoxy)ethyl)benzenesulfonamide] | Active
COc1cc(OC)c2c(=O)[nH]c(-c3cccnc3Oc3ccc(Cl)cc3)nc2c1 [2-(2-(4-chlorophenoxy)pyridin-3-yl)-5,7-dimethoxyquinazolin-4(3H)-one] | Inactive
COc1cc(OC)c2c(=O)[nH]c(-c3cc(C)cc(C)c3)nc2c1 [2-(3,5-dimethylphenyl)-5,7-dimethoxyquinazolin-4(3H)-one] | Active
COc1cc(OC)c2c(=O)[nH]c(-c3cc(C)c(OCCNC(=O)c4ccc(C)cc4)c(C)c3)nc2c1 [N-(2-(4-(5,7-Dimethoxy-4-oxo-3,4-dihydroquinazolin-2-yl)-2,6-dimethylphenoxy)ethyl)-4-methylbenzamide] | Active
COc1ccc(C(=O)NCCOc2c(C)cc(-c3nc4cc(OC)cc(OC)c4c(=O)[nH]3)cc2C)cc1 [N-(2-(4-(5,7-dimethoxy-4-oxo-3,4-dihydroquinazolin-2-yl)-2,6-dimethylphenoxy)ethyl)-4-methoxybenzamide] | Active
COc1cc(OC)c2cnc(-c3cc(C)c(O)c(C)c3)cc2c1 [4-(6,8-dimethoxyisoquinolin-3-yl)-2,6-dimethylphenol] | Active
Cc1cc(-c2nc3ccc(Br)cc3c(=O)[nH]2)cc(C)c1OCCO[Si](C)(C)C(C)(C)C [6-bromo-2-(4-(2-(tert-butyldimethylsilyloxy)ethoxy)-3,5-dimethylphenyl)quinazolin-4(3H)-one] | Active
COc1ccc(-c2nc3cc(OC)cc(OC)c3c(=O)[nH]2)cc1 [5,7-dimethoxy-2-(4-methoxyphenyl)quinazolin-4(3H)-one] | Active
Oc1ccc(-c2cc3ncccc3cn2)cc1 [4-(1,6-naphthyridin-7-yl)phenol] | Active
COc1cc2cc(-c3cc(C)c(O)c(C)c3)n(C)c(=O)c2c(OC)c1C [3-(4-hydroxy-3,5-dimethylphenyl)-6,8-dimethoxy-2,7-dimethylisoquinolin-1(2H)-one] | Active
